Measurements as given in US9034381B2, “Process to control particle size” (Alphapharm Pty Ltd, priority 2005, dated 2015).
“And” between values parts separate entries of the source, which are not always exact repeats. Equal values may be shown once.

Test: Particle size measurement of milled material (Malvern Mastersizer S laser diffraction)
Format: physicochemical
[1] = Example 1 (comparative), feedstock, individual samples
[2] = Example 1 (comparative), feedstock
[3] = Example 1 (comparative), micronised in a single process, composite
[4] = Example 1 (comparative), micronised in a single process, individual samples
[5] = Example 2 (comparative), feedstock, individual samples
[6] = Example 2 (comparative), feedstock
[7] = Example 2 (comparative), micronised in a single process, composite
[8] = Example 2 (comparative), micronised in a single process, individual samples
[9] = Example 3 (comparative), feedstock
[10] = Example 3 (comparative), micronised in a single process, composite
[11] = Example 3 (comparative), micronised in a single process, individual samples
[12] = Example 4, micronised first pass
[13] = Example 4, micronised second pass

- D[v, 0.5] [1]: 47.04 μm and 47.77 μm
- D[v, 0.9] [1]: 98.61 μm and 101.96 μm
- D[v, 0.5] mean [2]: 47.41 μm
- D[v, 0.9] mean [2]: 100.29 μm
- D[v, 0.5] composite (average) [3]: 15.27 μm
- D[v, 0.9] composite (average) [3]: 53.30 μm
- D[v, 0.5] [5]: 47.04 μm and 47.77 μm
- D[v, 0.9] [5]: 98.61 μm and 101.96 μm
- D[v, 0.5] mean [6]: 47.41 μm
- D[v, 0.9] mean [6]: 100.29 μm
- D[v, 0.5] composite (average) [7]: 5.95 μm
- D[v, 0.9] composite (average) [7]: 30.47 μm
- D[v, 0.5] [9]: 73.33 μm
- D[v, 0.9] [9]: 323.50 μm
- D[v, 0.5] composite [10]: 13.79 μm
- D[v, 0.9] composite (average) [10]: 33.14 μm
- D[v, 0.5] mean (Example 4, initial feedstock): 65.06 μm
- D[v, 0.9] mean (Example 4, initial feedstock): 177.81 μm
- D[v, 0.5] mean [12]: 33.89 μm
- D[v, 0.9] mean [12]: 78.22 μm
- D[v, 0.5] mean [13]: 16.30 μm
- D[v, 0.9] mean [13]: 37.22 μm
Structure (SMILES): NC(=O)N1c2ccccc2CC(=O)c2ccccc21 [Oxcarbazepine]
- D[v, 0.5] [4]: 15.02 μm and 15.18 μm and 15.16 μm and 25.41 μm and 10.36 μm
- D[v, 0.9] [4]: 52.08 μm and 51.71 μm and 51.94 μm and 67.97 μm and 44.13 μm
- D[v, 0.5] [8]: 3.84 μm and 6.09 μm and 2.15 μm and 4.91 μm
- D[v, 0.9] [8]: 19.56 μm and 31.90 μm and 11.56 μm and 27.25 μm
- D[v, 0.5] [11]: 7.50 μm and 19.51 μm and 15.09 μm and 15.64 μm
- D[v, 0.9] [11]: 16.47 μm and 44.34 μm and 34.47 μm and 35.78 μm
